The source of these data is article PMC8129133, “Polymer-free corticosteroid dimer implants for controlled and sustained drug delivery” (Nature Communications, 2021).

Data set [1] has as its system LPS-induced stimulation of PGE2 production by primary human monocytes. Put plainly: LPS induced monocyte activation (PGE2 ELISA). The data set is classed as cell-based. The note with it: for % Activity: Fig 4h, PGE2 production, one line per donor; for IC50: primary human monocytes, N=3, read-out: IC50, inhibition of LPS-induced PGE2 production. An excerpt:
Monocytes were isolated from whole peripheral blood donated by healthy volunteers. Protocols were approved by Health Sciences Research Ethics Board (REB) at the University of Toronto (ethics approval #22203). All experiments were repeated with three distinct donors who provided informed consent. Briefly, whole blood was layered on Histopaque-1077 (Sigma) and the mononuclear cell fraction was isolated by density centrifugation. Platelets were removed through a series of washes. Monocytes were seeded at a density of 200,000/well in a 96-well plate (Becton Dickinson). Medium was changed 2 h post-seeding to remove non-adherent cells. […] Dex derived from degraded Dex-TEG-Dex was prepared by dissolving Dex-TEG-Dex in ethanol at 10 mg/ml, adding to culture medium to achieve a concentration of 10 µg/ml, and subsequent incubation of the solution at 37 °C and 5% CO2 until the dimer had fully degraded, as confirmed by HPLC. […] Samples were incubated for 15 min at 37 °C and 5% CO2, followed by addition of a 2 µl lipopolysaccharide stock solution (LPS, Sigma) to obtain a final concentration of 50 µg/ml. Following overnight exposure to LPS, supernatant was collected and analyzed for PGE2 using a PGE2 ELISA kit according to the manufacturer’s instructions (R&D Systems).

Data set [2] in a line: In vitro release. Format: physicochemical. The settings on record: for Cumulative Dex Release (%), avg / Cumulative Dex Release (ng), avg / Cumulative Dex Release: Fig 6c; for Cumulative Dex Release: single replicates; for Cumulative TA Release: samples and avg; for Cumulative TA Release (%): FBS; for Cumulative Dex Release (%), avg / Cumulative Dex Release (ng), avg / Cumulative TA Release (%): avg. The protocol: Pellets for release studies. Crystalline drug dimers were weighed on a stainless steel coupon. In the case of blends with a second drug, the dimer and drug were mixed at the desired mass ratio with mortar and pestle prior to weighing. Samples were transferred to a heat press (Carver Laboratory Press). A PTFE mold containing an array of 1 mm diameter holes of 1 mm depth was placed on top of the melt, and pressure was applied for 2 min. Molded pellets were cooled to room temperature and punched out of the mold, yielding a pellet of 1 mm height × 1 mm diameter.
Release studies were carried out using different media, including PBS (pH 7.4, Gibco), 100% FBS (Sigma, F1051), 1% FBS in PBS pH 7.4, and 3.6% BSA (Sigma, A7906) in PBS (pH 7.4, Gibco). […] Samples were incubated in release medium at 37 °C under constant agitation on an orbital shaker at 115 rpm (VWR). At designated timepoints, sampling was performed by complete removal of medium and replenishment with fresh buffer. Sampling timepoints included 24 h and then every 3–4 days thereafter. For PBS release conditions, samples were analyzed directly. For samples with protein (100% FBS, 1% FBS, 3.6% BSA), protein was precipitated by addition of acetonitrile. Samples were vortexed and centrifuged to separate extracted drug from precipitated protein. The supernatant was then analyzed for drug concentration by HPLC.

“And” between values parts separate entries of the source, which are not always exact repeats. Identical values can stand only once. Like-named read-outs stand apart in the source and are kept apart here.

For the compound `C[C@@H]1C[C@H]2[C@@H]3CCC4=CC(=O)C=C[C@]4(C)[C@@]3(F)[C@@H](O)C[C@]2(C)[C@@]1(O)C(=O)CO` [Dex from Degraded Dex-TEG-Dex], the “% Activity” value in data set [1] (0.05 nM, 50 pM) is 133.56% and 95.05% and 109.87%; in data set [1] (0.1 nM, 0.0001 µM) it was 71.31% and 70.97% and 72.68%; in data set [1] (0.5 nM, 0.0005 µM), 92.91% and 70.93% and 94.26%; in data set [1] (1 nM, 0.001 µM) it was 74.23% and 63.23% and 72.65%; in data set [1] (5 nM, 0.005 µM), 59.75% and 37.69% and 27.50%; in data set [1] (10 nM, 0.01 µM), 60.49% and 37.84% and 31.81%. Moreover, in data set [1] (100 nM, 0.1 µM), the “% Activity” value was 63.88% and 16.49% and 17.83%. The IC50 in data set [1] (listed as Dex from Dex-TEG-Dex) was found to be 0.93 ± 0.49 nM.
With `C[C@@H]1C[C@H]2[C@@H]3CCC4=CC(=O)C=C[C@]4(C)[C@@]3(F)[C@@H](O)C[C@]2(C)[C@@]1(O)C(=O)CO` [Dex, dexamethasone, reference compound], the “Cumulative Dex Release (%), avg” value stood at 0.0437% in data set [2] (Day 1); 0.15% in data set [2] (Day 3); 0.45% in data set [2] (Day 8); 0.56% in data set [2] (Day 10); 0.78% in data set [2] (Day 14). In addition, the “Cumulative Dex Release (ng), avg” value in data set [2] (Day 1) was determined as 365.83 ng; in data set [2] (Day 3), 1234.13 ng; in data set [2] (Day 8), 3751.80 ng; in data set [2] (Day 10) it was 4651.15 ng; in data set [2] (Day 14), 6525.91 ng. In addition, the “Cumulative Dex Release” value is 489.28 ng and 390.83 ng and 217.38 ng in data set [2] (Day 1); 1469.66 ng and 1518.28 ng and 714.45 ng in data set [2] (Day 3); 4281.72 ng and 3939.60 ng and 3034.10 ng in data set [2] (Day 8); 5032.13 ng and 5126.71 ng and 3794.60 ng in data set [2] (Day 10); 7249.57 ng and 6858.64 ng and 5469.52 ng in data set [2] (Day 14). In addition, the “% Activity” value in data set [1] (0.05 nM, 50 pM) is 141.66% and 109.12% and 86.18%; in data set [1] (0.1 nM, 0.0001 µM), 118.30% and 90.43% and 82.49%; in data set [1] (0.5 nM, 0.0005 µM) it was 96.26% and 65.64% and 103.04%; in data set [1] (1 nM, 0.001 µM) it was 66.03% and 45.78% and 57.92%; in data set [1] (5 nM, 0.005 µM), 74.59% and 37.73% and 56.77%; in data set [1] (10 nM, 0.01 µM), 69.04% and 28.95% and 33.87%. Besides, in data set [1] (100 nM, 0.1 µM), the “% Activity” value was 42.88% and 13.38% and 14.89%. Besides, the IC50 in data set [1] (Monocyte) was found to be 1.52 ± 1.24 nM.
With `CC1(C)OC2CC3C4CCC5=CC(=O)C=CC5(C)C4(F)C(O)CC3(C)C2(C(=O)COC(=O)OCCOCCOCCOC(=O)OCC(=O)C23OC(C)(C)OC2CC2C4CCC5=CC(=O)C=CC5(C)C4(F)C(O)CC23C)O1` (stereo not drawn) [TA-TEG-TA], the “Cumulative TA Release” value was 5664.02 ng and 5830.61 ng and 10508.43 ng and 8884.74 ng and 7887.68 ng in data set [2] (Fig 5b pellet 1x1 mm, 4 ml FBS, Day 3); 7755.10 ng in data set [2] (Fig 5b pellet 1x1 mm, 4 ml FBS, Day 3, mean); 24788.43 ng and 27087.36 ng and 33297.79 ng and 37315.92 ng and 18944.25 ng in data set [2] (Fig 5b pellet 1x1 mm, 4 ml FBS, Day 10); 28286.75 ng in data set [2] (Fig 5b pellet 1x1 mm, 4 ml FBS, Day 10, mean); 34850.40 ng and 35016.99 ng and 40361.16 ng and 49853.28 ng and 32172.64 ng in data set [2] (Fig 5b pellet 1x1 mm, 4 ml FBS, Day 14); 38450.90 ng in data set [2] (Fig 5b pellet 1x1 mm, 4 ml FBS, Day 14, mean). Further, the “Cumulative TA Release” value in data set [2] (Fig 5f microparticles, 10 ml FBS, 1st time point (day not given)) is 2977.29 ng and 2848.37 ng and 4097.61 ng; in data set [2] (Fig 5f microparticles, 10 ml FBS, 1st time point (day not given), mean), 3307.76 ng; in data set [2] (Fig 5f microparticles, 10 ml FBS, 2nd time point (day not given)), 14594.84 ng and 16537.75 ng and 15417.43 ng; in data set [2] (Fig 5f microparticles, 10 ml FBS, 2nd time point (day not given), mean), 15516.68 ng; in data set [2] (Fig 5f microparticles, 10 ml FBS, 3rd time point (day not given)), 49825.05 ng and 51101.90 ng and 51098.83 ng; in data set [2] (Fig 5f microparticles, 10 ml FBS, 3rd time point (day not given), mean), 50675.26 ng. Also, the “Cumulative TA Release” value in data set [2] (Fig 5f microparticles, 10 ml FBS, 4th time point (day not given)) was 60024.55 ng and 61820.14 ng and 64573.36 ng; in data set [2] (Fig 5f microparticles, 10 ml FBS, 4th time point (day not given), mean), 62139.35 ng; in data set [2] (Fig 5f microparticles, 10 ml FBS, 5th time point (day not given)), 83317.99 ng and 79582.57 ng and 89772.87 ng; in data set [2] (Fig 5f microparticles, 10 ml FBS, 5th time point (day not given), mean) it was 84224.47 ng. The “Cumulative TA Release (%)” value in data set [2] (Fig 5b pellet, Day 1) is recorded as 0.13%; in data set [2] (Fig 5b pellet, Day 3) it was 0.96%; in data set [2] (Fig 5b pellet, Day 7), 2.37%; in data set [2] (Fig 5b pellet, Day 10) it was 3.49%; in data set [2] (Fig 5b pellet, Day 14) it was 4.75%; in data set [2] (Fig 5f microparticles, 1st time point) it was 2.67%. The “Cumulative TA Release (%)” value in data set [2] (Fig 5f microparticles, 2nd time point) came out at 12.50%; in data set [2] (Fig 5f microparticles, 3rd time point), 40.83%; in data set [2] (Fig 5f microparticles, 4th time point), 50.07%; in data set [2] (Fig 5f microparticles, 5th time point), 67.87%.

What is called IC50 is the point on the concentration scale where inhibition reaches its midpoint.
